For data set [1] the following is noted: Liquid, Ebulliometric method (Recirculating still).
The nature of data set [2]: refractive index (Na D-line) (dimensionless). The following applies: 298.15 K; 101.33 kPa; Liquid; Standard Abbe refractometry.

3 compounds from the NIST ThermoML archive (doi:10.1021/je060476j) can be followed below.

The structures appear in SMILES notation. Numbers after ± are expanded uncertainties.

For the compound `CO` [methanol], the “vapor or sublimation pressure” value in data set [1] (337.68 K) was 101.3 ± 0.6 kPa. Besides, the refractive index in data set [2] is listed as 1.3261 ± 0.0007.
Consider `CC(C)O` [propan-2-ol], for which the “vapor or sublimation pressure” value in data set [1] (355.5 K) amounted to 101.3 ± 0.6 kPa. The refractive index in data set [2] is listed as 1.375 ± 0.0007.
For `CCC(C)(C)O` [2-methylbutan-2-ol], the “vapor or sublimation pressure” value in data set [1] (375.14 K) is recorded as 101.3 ± 0.6 kPa. In addition, the refractive index in data set [2] was 1.4018 ± 0.0007.

As a reminder, the vapor or sublimation pressure is the pressure of vapour in equilibrium with the condensed phase. A word on the refractive index: it is a measure of how strongly the sample bends light.
